From US20020068360A1, “Cyclohexanediol cryoprotectant compounds” (priority 2000, published 2002)

Test system: AV5 cells
Test: Cell viability (Alamar Blue) of AV5 cells after cryopreservation and warming
Format: cell-based, porcine
Settings: 0 to 1 M CHD added to 1 M DMSO or to DMSO/formamide/propanediol (final 1 M), normalized to conventional cryoprotectant alone, FIGS. 2 and 3
Procedure: A primary cell strain called AV5 was used for these experiments. AV5 cells are derived from porcine heart valve leaflets. Hearts were obtained from pigs and the heart valve leaflets were then removed and washed several times with sterile phosphate-buffered saline (PBS). Small pieces (˜1 mm^2) were cut and placed into a 24-well microtiter plate coated with 0.2% gelatin. Dulbecco's Modified Eagle's Medium (DMEM) with 10% fetal calf serum (FCS) was added to just cover the bottom of the well and the plate was left at 37° C. with 5% CO2 in air until visible outgrowth occurred. […]
Cell viability was then determined using the non-invasive metabolic indicator Alamar Blue (Trek Diagnostics). […] Fluorescence from Alamar Blue was read in a fluorescent microplate reader (Fmax fluorescent microplate reader by […]) using an excitation wavelength of 544 nm and an emission wavelength of 590 nm.
The first set of experiments involved using two CPA compositions, either 1 M dimethyl sulfoxide (DMSO) (left bar of graph at each concentration of 1,3CHD in FIG. 2 and 1,4CHD in FIG. 3) or a combination of DMSO, formamide and propanediol at a final concentration of 1 M (right bar of graph at each concentration of 1,3CHD in FIG. 2 and 1,4CHD in FIG. 3). […] Cell viability was assessed using the assay described above. […]

For OC1CCCC(O)C1 (centres unmarked) [1,3CHD, 1,3-cyclohexanediol], the “relative cell viability after freezing” value was “significantly increased”.
With OC1CCC(O)CC1 (centres unmarked) [1,4CHD, 1,4-cyclohexanediol] the “relative cell viability after freezing” value was “significantly increased”.
